{"source": "patent US20030111088A1", "about": "“Device and method for treating combination dependencies” (Addiction Therapies, Inc., priority 2001, published 2003)", "key": {"[1]": {"conditions": "in vivo; cited from earlier work"}, "[2]": {"conditions": "several clinical studies; cited from earlier work"}, "[3]": {"conditions": "for plasma levels of nicotine by dose group: single and repeated dose parts", "description": "The chamber 10 is a plastic drinking straw. The retainer 18 is a filter at the first end 12 of the straw. The user places the first end 12 of the device in a glass of apple juice and applies oral suction to the second end 14 of the device, such that the juice and nicotine 16 are delivered into the user's mouth.\nThe nicotine 16 in the device is in the form of coated sugar spheres of nicotine bitartrate having a diameter of approximately 500 micrometers. The nicotine spheres are prepared by spraying nicotine bitartrate dihydrate with a binder onto sugar spheres and applying a film coating. Using a Wurster processing unit, particles are suspended in air using a controlled airflow system and a coating suspension is added at a controlled rate via a pneumatically atomized nozzle. As atomized droplets of the coating solution contact the particles, they spread and coalesce on the particle surface. Excess moisture from the applied liquid evaporates in the apparatus, leaving a coated dry substance. Mixing of the coating suspension occurs throughout the manufacturing process to ensure uniformity of the suspension.\n(§1) On day one, following overnight abstinence from smoking, healthy adult smokers who wish to give up smoking receive a single dose of nicotine or placebo. Smokers are assigned to each dosage group in a double blind, randomized manner, as is well known in the art. The following data are collected before dosing, every thirty minutes for the first two hours after dosing, and every hour for the following six hours: plasma levels of nicotine and cotinine, vital signs, adverse events, and patient's assessment of cigarette cravings. Baseline and endpoint clinical chemistry, hematology, urinalysis, and ECG are also monitored.\n(§2) There were 6 subjects per treatment group. […] Apple juice was used as the beverage for delivering nicotine from the straw-like device."}, "[4]": {"text": "as §1\nOn day eight, again following overnight abstinence from smoking, the same subjects receive the same dose of nicotine or placebo. The dose is repeated periodically throughout the day. The following data are collected as described above before the first dosing and one hour after each dose is administered: plasma levels of nicotine and cotinine, vital signs, adverse events, and patient's assessment of cigarette cravings. Baseline and endpoint clinical chemistry, hematology, urinalysis, and ECG are also monitored. The data are used to evaluate the safety and pharmacokinetics of nicotine delivery by the smoking cessation device.\nas §2"}}, "note": "Read-outs that look alike come from different tables or passages of the source."}
{"smiles": "Oc1ccc2c3c1O[C@H]1[C@H](O)CC[C@@]4(O)[C@@H](C2)N(CC2CC2)CC[C@]314", "note": "[6β-naltrexol]", "values": [{"measurement": "plasma half-life", "setting": "[1]", "result": 12, "unit": "h"}]}
{"smiles": "O=C1CC[C@@]2(O)[C@H]3Cc4ccc(O)c5c4[C@@]2(CCN3CC2CC2)[C@H]1O5", "note": "[Naltrexone, naltrexone]", "values": [{"measurement": "effects on smoking cessation", "setting": "[2]", "result": "only small effects"}]}
{"smiles": "CN1CCCC1c1cccnc1", "note": "(centres unmarked) [nicotine]", "values": [{"measurement": "plasma levels of nicotine by dose group", "setting": "[3]; 4 mg dose group", "result": "lowest plasma levels"}, {"measurement": "plasma levels of nicotine by dose group", "setting": "[3]; 8 mg and 12 mg dose groups", "result": "higher plasma levels"}, {"measurement": "nicotine levels in most subjects", "setting": "[3]; 15 minutes after dosing", "result": "already increased"}, {"measurement": "plasma nicotine on repeated dosing", "setting": "[3]; repeated dosing every 1.5 hours, 10.5 hour sampling period", "result": "continuous increases"}, {"measurement": "plasma levels of nicotine versus marketed nicotine replacement products", "setting": "[3]; single dose 4 mg, 8 mg or 12 mg, straw-like device, FIG. 3", "result": "comparable to or greater than"}, {"measurement": "kinetics compared with nicotine gum", "setting": "[3]; straw-like device, FIG. 4", "result": "very similar"}, {"measurement": "tolerability", "setting": "[4]; 4 mg and 8 mg doses in straw-like delivery device", "result": "well tolerated"}, {"measurement": "nausea and vomiting", "setting": "[4]; 12 mg dose versus 4 mg and 8 mg", "result": "seen only with the 12 mg dose"}, {"measurement": "adverse events observed", "setting": "[4]; all nicotine doses", "result": "lightheadedness, nausea, and vomiting"}, {"measurement": "clinical chemistry, hematology, urinalysis or ECG values", "setting": "[4]; human, in vivo", "result": "no clinically significant changes"}, {"measurement": "vital sign measurements", "setting": "[4]; human, in vivo", "result": "Occasional increases"}, {"measurement": "craving for cigarettes", "setting": "[4]; over the repeat dosing session, all subjects receiving nicotine", "result": "decreased"}]}
